target: T1, Recombinant human JARID1B/KDM5B (Homo sapiens, UniProt Q9UGL1); experiment: LANCE Ultra TR-FRET demethylase assay with FLAG-tagged JARID1B; type: biochemical; details: 100 nM compound; 500 nM biotinylated H3K4me3 peptide substrate
T1 construct: purchased Active Motif 31432; host or cells: Sf9 insect cells
Text: FLAG-tagged JARID1B (also known as KDM5B) protein was screened against more than 170 compounds. For this compound screening, LANCE Ultra time-resolved fluorescence resonance energy transfer (TR-FRET) assay was employed using an europoium (Eu)-labeled antibody that can specifically recognize mono- or dimethylated peptides (H3K4me2/1) and ULight-streptavidin (ULight-SA), a small molecule fluorescent dye. When irradiated at 340 nm, the energy from the Eu donor is transferred to the ULight acceptor dye which, in turn, emits light primarily at 665 nm. The ratio between the intensity of primary emission at 665 nm and that of secondary emission at 590 nm was used to quantify the level of lysine methylation. As JARID1B removes more methyl moieties from tri-methylated substrate peptides (H3K4me3), the ratio increases until the enzyme reaction is terminated. In case, therefore, the compounds disrupt the enzymatic activity completely, the ratio becomes equal to a background value.
Recombinant human JARID1B/KDM5B (accession number NP_006609) of molecular weight 179.9 KDa was expressed in Sf9 insect cells and contains an N-terminal FLAG tag. The enzyme was obtained from Active Motif (Catalog No. 31432). The tri-methylated histone substrate peptide of purity greater than 95% was a synthetic peptide in which the first 21 amino acids correspond to the human histone H3 sequence with three extra amino acids and a biotin motif (GGK-biotin) linked to the C-terminus [sequence: ART-K (Me3)-QTARKSTGGKAPRKQLA-GGK-biotin-OH], (AnaSpec, Fremont, Calif. Catalog. No. ANA-1413). The reference inhibitory compound tranylcypromine (or trans-2-phenylcyclopropylamine hydrochloride, also known as, 2-PCPA) was purchased from Sigma (St. Louis, Mo. Cat. no. P8511). ULight-labeled streptavidin (ULight-SA, Catalog no. TRF0102), Eu-W1024-labeled anti-methyl-Histone H3 Lysine 4 (H3K4me1-2) Antibody (Catalog no. TRF0402), and LANCE detection buffer 10× (Catalog no. CR97-100) were obtained from PerkinElmer (Montreal, Quebec, Canada). The TR-FRET experiments were carried out in white, low-volume 384-wellplates purchased from PerkinElmer (ProxiPlate-384 Plus, Catalog no. 6008280).
The TR-FRET signal was measured in the presence both of the bio-H3K4me3 peptide and FLAG-JARID1B by detecting any H3K4me2/1 peptide produced in the assay system. Assays using only the bio-H3K4me2 peptide were served as a positive control. Robust enzymatic progressions were observed by using JARID1B at concentrations ranging from 10 to 30 nM. In a typical TR-FRET experiment, JARID1B was pre-incubated with or without 20 uM, 1 uM, or 0.1 uM of test-compounds (containing 1% DMSO final) for […]. The enzymatic reactions were initiated by the addition of 500 nM biotinylated H3K4me3 peptide substrate plus 500 uM of 2-OG, 25 uM Fe(II) and 2 mM ascorbate. The reaction buffer also contained 50 mM Hepes (pH7.5), 0.01% (v/v) Tween 20, and 50 mM NaCl. The reaction mixture was incubated for […] at room temperature before reading on an EnVision plate reader (PerkinElmer, Waltham, Mass.).

T1 sequence (Q9UGL1 whole entry): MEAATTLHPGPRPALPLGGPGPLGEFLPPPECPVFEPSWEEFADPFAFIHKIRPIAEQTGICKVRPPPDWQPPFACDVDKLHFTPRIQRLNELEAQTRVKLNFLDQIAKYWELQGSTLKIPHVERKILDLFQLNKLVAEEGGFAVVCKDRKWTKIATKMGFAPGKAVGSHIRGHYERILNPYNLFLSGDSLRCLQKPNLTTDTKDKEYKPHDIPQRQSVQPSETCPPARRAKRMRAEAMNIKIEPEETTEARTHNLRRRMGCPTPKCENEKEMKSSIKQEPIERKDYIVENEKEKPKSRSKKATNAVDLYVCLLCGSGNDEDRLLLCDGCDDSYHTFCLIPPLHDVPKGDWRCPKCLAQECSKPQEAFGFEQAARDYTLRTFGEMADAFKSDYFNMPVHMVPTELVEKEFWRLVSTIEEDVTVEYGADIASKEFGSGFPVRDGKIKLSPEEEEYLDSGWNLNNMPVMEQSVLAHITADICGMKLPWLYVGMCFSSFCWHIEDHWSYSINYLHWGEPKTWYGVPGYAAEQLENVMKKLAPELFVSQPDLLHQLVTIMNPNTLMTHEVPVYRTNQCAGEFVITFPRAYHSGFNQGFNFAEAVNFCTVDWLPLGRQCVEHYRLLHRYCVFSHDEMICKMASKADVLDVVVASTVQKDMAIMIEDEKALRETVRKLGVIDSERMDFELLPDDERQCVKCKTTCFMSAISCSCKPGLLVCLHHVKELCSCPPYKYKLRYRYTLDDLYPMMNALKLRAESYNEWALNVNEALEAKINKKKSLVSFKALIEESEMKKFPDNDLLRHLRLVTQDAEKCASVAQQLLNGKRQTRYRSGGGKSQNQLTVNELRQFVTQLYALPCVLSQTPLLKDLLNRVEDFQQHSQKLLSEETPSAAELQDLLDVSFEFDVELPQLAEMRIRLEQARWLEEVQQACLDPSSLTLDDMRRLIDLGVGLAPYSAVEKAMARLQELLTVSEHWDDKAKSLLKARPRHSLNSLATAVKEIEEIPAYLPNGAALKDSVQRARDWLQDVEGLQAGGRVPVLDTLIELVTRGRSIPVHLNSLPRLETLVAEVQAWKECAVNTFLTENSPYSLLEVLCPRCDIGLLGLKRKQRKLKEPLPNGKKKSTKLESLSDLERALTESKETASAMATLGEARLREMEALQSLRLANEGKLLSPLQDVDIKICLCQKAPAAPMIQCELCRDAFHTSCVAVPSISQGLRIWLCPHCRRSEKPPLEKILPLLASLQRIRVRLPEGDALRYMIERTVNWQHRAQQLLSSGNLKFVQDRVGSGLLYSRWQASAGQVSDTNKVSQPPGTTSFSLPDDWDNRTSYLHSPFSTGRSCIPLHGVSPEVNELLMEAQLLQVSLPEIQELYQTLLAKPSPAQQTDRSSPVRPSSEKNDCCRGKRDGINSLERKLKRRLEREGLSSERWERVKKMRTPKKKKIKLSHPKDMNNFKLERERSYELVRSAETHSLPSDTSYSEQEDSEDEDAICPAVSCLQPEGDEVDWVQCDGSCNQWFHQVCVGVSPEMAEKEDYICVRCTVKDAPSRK

Compound | inhibition at 0.1 µM [%]
CCN(CC)CCCCNCc1nccc2c(=O)[nH]cnc12 [Example 86, 8-(((4-(diethylamino)butyl)amino)methyl)pyrido[3,4-d]pyrimidin-4(3H)-one] | < 20
O=c1[nH]c(COc2ccc(Br)cc2)nc2c(CNCC3CCN(Cc4ccccc4)CC3)nccc12 [Example 108, 8-((((1-benzylpiperidin-4-yl)methyl)amino)methyl)-2-((4-bromophenoxy)methyl)pyrido[3,4-d]pyrimidin-4(3H)-one] | > 50
CN1CCCC(CNCc2nccc3c(=O)[nH]cnc23)C1 (stereo not drawn) [Example 100, 8-((((1-methylpiperidin-3-yl)methyl)amino)methyl)pyrido[3,4-d]pyrimidin-4(3H)-one] | > 50
O=c1[nH]c(COc2ccc(C3CCCC3)cc2)nc2c(CNCC3CCNCC3)nccc12 [Example 140, 2-((4-cyclopentylphenoxy)methyl)-8-(((piperidin-4-ylmethyl)amino)methyl)pyrido[3,4-d]pyrimidin-4(3H)-one] | 20 to 50
O=c1[nH]c(COc2cc(F)cc(F)c2)nc2c(CNCC3CCNCC3)nccc12 [Example 125, 2-((3,5-difluorophenoxy)methyl)-8-(((piperidin-4-ylmethyl)amino)methyl)pyrido[3,4-d]pyrimidin-4(3H)-one] | 20 to 50
CCN1CCC[C@@H]1CNCc1nccc2c(=O)[nH]c(COc3ccc(Cc4ccccc4)cc3)nc12 [Example 145, (R)-2-((4-benzylphenoxy)methyl)-8-((((1-ethylpyrrolidin-2-yl)methyl)amino)methyl)pyrido[3,4-d]pyrimidin-4(3H)-one] | 20 to 50
CCN1CCC[C@H]1CNCc1nccc2c(=O)[nH]c(COc3ccc(Cc4ccccc4)cc3)nc12 [Example 146, (S)-2-((4-benzylphenoxy)methyl)-8-((((1-ethylpyrrolidin-2-yl)methyl)amino)methyl)pyrido[3,4-d]pyrimidin-4(3H)-one] | 20 to 50
O=c1[nH]c(COc2cnc(Br)cn2)nc2c(CNCC3CCNCC3)nccc12 [Example 131, 2-(((5-bromopyrazin-2-yl)oxy)methyl)-8-(((piperidin-4-ylmethyl)amino)methyl)pyrido[3,4-d]pyrimidin-4(3H)-one] | 20 to 50
Cc1cc(OCc2nc3c(CNCC4CCNCC4)nccc3c(=O)[nH]2)ccc1Cl [Example 134, 2-((4-chloro-3-methylphenoxy)methyl)-8-(((piperidin-4-ylmethyl)amino)methyl)pyrido[3,4-d]pyrimidin-4(3H)-one] | 20 to 50
O=c1[nH]cnc2c(CNC[C@H]3CCCNC3)nccc12 [Example 99, (S)-8-(((piperidin-3-ylmethyl)amino)methyl)pyrido[3,4-d]pyrimidin-4(3H)-one] | 20 to 50
Cc1ccc(OCc2nc3c(CNCC4CCNCC4)nccc3c(=O)[nH]2)cc1C [Example 136, 2-((3,4-dimethylphenoxy)methyl)-8-(((piperidin-4-ylmethyl)amino)methyl)pyrido[3,4-d]pyrimidin-4(3H)-one] | 20 to 50
O=c1[nH]c(COc2ccc(Cc3ccccc3)cc2)nc2c(CNC[C@H]3CCCNC3)nccc12 [Example 153, (S)-2-((4-benzylphenoxy)methyl)-8-(((piperidin-3-ylmethyl)amino)methyl)pyrido[3,4-d]pyrimidin-4(3H)-one] | > 50

More lines, now with the values ahead:

inhibition at 0.1 µM [%] | Compound
20 to 50 | CN1CCC(CNCc2nccc3c(=O)[nH]c(C4CCc5ccccc5O4)nc23)CC1 (stereo not drawn) [Example 200, 2-(chroman-2-yl)-8-((((1-methylpiperidin-4-yl)methyl)amino)methyl)pyrido[3,4-d]pyrimidin-4(3H)-one]
> 50 | CC(C)N1CCC(CNCc2nccc3c(=O)[nH]c(COc4ccc(F)c(Cl)c4)nc23)CC1 [Example 168, 2-((3-chloro-4-fluorophenoxy)methyl)-8-((((1-isopropylpiperidin-4-yl)methyl)amino)methyl)pyrido[3,4-d]pyrimidin-4(3H)-one]
> 50 | O=c1[nH]c(COc2ccc(Cc3ccccc3)cc2)nc2c(CNC[C@@H]3CCCNC3)nccc12 [Example 154, (R)-2-((4-benzylphenoxy)methyl)-8-(((piperidin-3-ylmethyl)amino)methyl)pyrido[3,4-d]pyrimidin-4(3H)-one]
20 to 50 | CC(Oc1ccc(Cc2ccccc2)cc1)c1nc2c(CNCC3CCN(C)C3)nccc2c(=O)[nH]1 (stereo not drawn) [Example 214, 2-(1-(4-benzylphenoxy)ethyl)-8-((((1-methylpyrrolidin-3-yl)methyl)amino)methyl)pyrido[3,4-d]pyrimidin-4(3H)-one]
< 20 | C[C@@H](Oc1ccc(F)c(Cl)c1)c1nc2c(CNCC3CCNCC3)nccc2c(=O)[nH]1 [Example 217, (R)-2-(1-(3-chloro-4-fluorophenoxy)ethyl)-8-(((piperidin-4-ylmethyl)amino)methyl)pyrido[3,4-d]pyrimidin-4(3H)-one]
20 to 50 | O=c1[nH]c(COc2ccc(F)c(Cl)c2)nc2c(CNCCc3cccs3)nccc12 [Example 176, 2-((3-chloro-4-fluorophenoxy)methyl)-8-(((2-(thiophen-2-yl)ethyl)amino)methyl)pyrido[3,4-d]pyrimidin-4(3H)-one]
< 20 | O=c1[nH]c(COc2ccc(F)c(Cl)c2)nc2c(CNCC3CCOC3)nccc12 (stereo not drawn) [Example 163, 2-((3-chloro-4-fluorophenoxy)methyl)-8-((((tetrahydrofuran-3-yl)methyl)amino)methyl)pyrido[3,4-d]pyrimidin-4(3H)-one]
20 to 50 | O=c1[nH]c(COc2ccc(F)c(Cl)c2)nc2c(CNCCc3ccccn3)nccc12 [Example 186, 2-((3-chloro-4-fluorophenoxy)methyl)-8-(((2-(pyridin-2-yl)ethyl)amino)methyl)pyrido[3,4-d]pyrimidin-4(3H)-one]
< 20 | CN1CCC(CNCc2nccc3c(=O)[nH]c(C4Cc5ccccc5C4)nc23)CC1 [Example 201, 2-(2,3-dihydro-1H-inden-2-yl)-8-((((1-methylpiperidin-4-yl)methyl)amino)methyl)pyrido[3,4-d]pyrimidin-4(3H)-one]
> 50 | C[C@@H](Oc1ccc(Cc2ccccc2)cc1)c1nc2c(CNCC3CCNCC3)nccc2c(=O)[nH]1 [Example 215, (R)-2-(1-(4-benzylphenoxy)ethyl)-8-(((piperidin-4-ylmethyl)amino)methyl)pyrido[3,4-d]pyrimidin-4(3H)-one]
> 50 | O=c1[nH]c(COc2ccc(F)c(Cl)c2)nc2c(CNCCCn3ccnc3)nccc12 [Example 165, 8-(((3-(1H-imidazol-1-yl)propyl)amino)methyl)-2-((3-chloro-4-fluorophenoxy)methyl)pyrido[3,4-d]pyrimidin-4(3H)-one]
> 50 | O=c1[nH]c(COc2ccc(F)c(Cl)c2)nc2c(CNCc3cccnc3)nccc12 [Example 172, 2-((3-chloro-4-fluorophenoxy)methyl)-8-(((pyridin-3-ylmethyl)amino)methyl)pyrido[3,4-d]pyrimidin-4(3H)-one]
20 to 50 | CN1CCOC(CNCc2nccc3c(=O)[nH]c(COc4ccc(F)c(Cl)c4)nc23)C1 (stereo not drawn) [Example 178, 2-((3-chloro-4-fluorophenoxy)methyl)-8-((((4-methylmorpholin-2-yl)methyl)amino)methyl)pyrido[3,4-d]pyrimidin-4(3H)-one]
< 20 | CN1CCC(CNCc2nccc3c(=O)[nH]c(C4CCCO4)nc23)CC1 (stereo not drawn) [Example 194, 8-((((1-methylpiperidin-4-yl)methyl)amino)methyl)-2-(tetrahydrofuran-2-yl)pyrido[3,4-d]pyrimidin-4(3H)-one]
20 to 50 | O=c1[nH]c(COc2ccc(Cc3ccccc3)cc2)nc2c(CNCCN3CCOCC3)nccc12 [Example 157, 2-((4-benzylphenoxy)methyl)-8-(((2-morpholinoethyl)amino)methyl)pyrido[3,4-d]pyrimidin-4(3H)-one]
